This note sets out measurements from article PMC2818863 (Bioorganic & medicinal chemistry, 2009).

The IC50 is the midpoint of a concentration-inhibition curve. Low readings indicate inhibition by little substance, high ones a need for much substance.

Holding throughout (assay type): biochemical
The target in one test is PLAP (Homo sapiens, UniProt P05187). The test can be described thus: PLAP luminescent assay. The conditions noted are these: for IC50: PLAP potency (IC50), mean ± SD of three experiments, CDP-star 85 μM.
Chain of PLAP (P05187 23-506 limits assumed): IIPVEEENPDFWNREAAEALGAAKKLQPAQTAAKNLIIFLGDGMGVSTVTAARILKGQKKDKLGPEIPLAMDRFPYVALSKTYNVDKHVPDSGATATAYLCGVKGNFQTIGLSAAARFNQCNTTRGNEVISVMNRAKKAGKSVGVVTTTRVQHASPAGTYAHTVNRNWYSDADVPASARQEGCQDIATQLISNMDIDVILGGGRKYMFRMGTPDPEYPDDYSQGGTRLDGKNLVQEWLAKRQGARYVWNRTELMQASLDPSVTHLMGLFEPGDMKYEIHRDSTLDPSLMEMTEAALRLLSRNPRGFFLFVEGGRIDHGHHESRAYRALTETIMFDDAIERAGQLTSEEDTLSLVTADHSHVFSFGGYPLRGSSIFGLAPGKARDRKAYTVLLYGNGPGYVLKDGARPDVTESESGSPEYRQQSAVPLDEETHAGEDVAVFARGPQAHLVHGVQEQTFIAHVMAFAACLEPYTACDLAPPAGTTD
Another test has as its target T1, IAP (Homo sapiens, UniProt P09923).
T1 sequence (P09923 20-503 limits assumed): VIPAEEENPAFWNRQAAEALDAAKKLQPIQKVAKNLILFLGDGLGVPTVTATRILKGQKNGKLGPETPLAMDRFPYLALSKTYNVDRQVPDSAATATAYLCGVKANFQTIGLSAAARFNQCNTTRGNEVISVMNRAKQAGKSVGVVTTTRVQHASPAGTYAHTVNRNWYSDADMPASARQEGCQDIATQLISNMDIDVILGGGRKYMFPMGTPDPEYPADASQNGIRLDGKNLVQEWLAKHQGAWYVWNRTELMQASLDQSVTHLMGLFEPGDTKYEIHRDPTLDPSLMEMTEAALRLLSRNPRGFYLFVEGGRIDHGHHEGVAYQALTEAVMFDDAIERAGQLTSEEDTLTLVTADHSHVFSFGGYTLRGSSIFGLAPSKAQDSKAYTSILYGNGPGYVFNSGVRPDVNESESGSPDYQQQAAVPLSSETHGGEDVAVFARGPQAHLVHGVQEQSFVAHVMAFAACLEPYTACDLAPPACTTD
The test can be described thus: IAP luminescent assay. The conditions noted are these: ratio IC50 IAP / IC50 PLAP.

The target in another test is GCAP (Homo sapiens, UniProt P10696). The test can be described thus: GCAP luminescent assay. The conditions noted are these: ratio IC50 GCAP / IC50 PLAP; for 12, 13, 20 from the separate-occasion values.
Chain of GCAP (P10696 20-503 limits assumed): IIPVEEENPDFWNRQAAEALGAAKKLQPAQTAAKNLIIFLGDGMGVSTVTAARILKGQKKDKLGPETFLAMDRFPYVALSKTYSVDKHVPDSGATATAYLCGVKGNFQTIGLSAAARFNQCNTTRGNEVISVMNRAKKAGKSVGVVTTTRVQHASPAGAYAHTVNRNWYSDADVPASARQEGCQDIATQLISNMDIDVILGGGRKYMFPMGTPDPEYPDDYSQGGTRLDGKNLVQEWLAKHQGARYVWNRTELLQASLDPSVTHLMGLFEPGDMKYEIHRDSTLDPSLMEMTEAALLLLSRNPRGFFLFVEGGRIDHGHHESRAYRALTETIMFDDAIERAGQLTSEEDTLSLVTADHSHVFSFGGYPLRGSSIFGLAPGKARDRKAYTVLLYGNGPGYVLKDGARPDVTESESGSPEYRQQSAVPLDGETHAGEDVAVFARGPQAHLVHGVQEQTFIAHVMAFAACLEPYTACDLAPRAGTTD
Another test has as its target T2, TNAP (Homo sapiens, UniProt P05186).
T2 sequence (P05186 18-502 limits assumed): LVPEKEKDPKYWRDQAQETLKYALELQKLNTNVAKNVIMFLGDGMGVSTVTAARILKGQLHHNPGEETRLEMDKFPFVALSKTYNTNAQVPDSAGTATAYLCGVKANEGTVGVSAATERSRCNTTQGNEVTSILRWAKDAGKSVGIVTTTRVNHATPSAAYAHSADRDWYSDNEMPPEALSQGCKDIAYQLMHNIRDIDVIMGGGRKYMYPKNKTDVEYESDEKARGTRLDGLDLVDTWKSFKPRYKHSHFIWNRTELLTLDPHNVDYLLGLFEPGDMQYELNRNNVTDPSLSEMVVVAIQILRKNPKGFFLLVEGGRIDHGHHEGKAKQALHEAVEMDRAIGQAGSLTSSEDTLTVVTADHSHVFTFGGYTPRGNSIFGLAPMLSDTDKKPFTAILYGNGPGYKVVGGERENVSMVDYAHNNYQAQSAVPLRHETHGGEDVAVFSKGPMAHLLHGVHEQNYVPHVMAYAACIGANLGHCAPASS
The test is described as follows: TNAP luminescent assay. To be noted: ratio IC50 TNAP / IC50 PLAP.

In the case of `Cc1cc(C)nc(SCC(=O)c2ccc(O)cc2)n1` [Compound 3], on PLAP, the IC50 was above 100 µM and the “PLAP inhibitory potency at 100 μM” value is given as “no PLAP inhibitory potency”. In the case of `Cc1cc(C)nc(SCC(=O)c2cccc(O)c2)n1` [Compound 4], on PLAP, the IC50 is above 100 µM and the “PLAP inhibitory potency at 100 μM” value was “no PLAP inhibitory potency”. In the same order, the values of `COc1cc(C(=O)CSc2nc(C)cc(C)n2)ccc1O` [Compound 5] are above 100 µM and “no PLAP inhibitory potency”. In the same order, the values of `Cc1cc(C)nc(SCC(=O)c2ccc3c(c2)OCO3)n1` [Compound 6] are above 100 µM and “no PLAP inhibitory potency”. As for `COc1ccc(C(=O)CSc2nc(C)cc(C)n2)cc1` [Compound 7], at PLAP, the IC50 was above 100 µM and the “PLAP inhibitory potency at 100 μM” value is “no PLAP inhibitory potency”. In turn, `O=C(Cn1ccnc1)c1ccc(O)c(O)c1` [Compound 8] returned an IC50 on PLAP of around 3 µM. Turning to `Cc1cnn(CC(=O)c2ccc(O)c(O)c2)c1` [Compound 10], the “Selectivity (IAP/PLAP)” value at IAP is given as above 25 fold. In addition, the IC50 on PLAP was found to be 2.7 ± 0.1 µM. Turning to `Cc1nccn1CC(=O)c1ccc(O)c(O)c1` [Compound 12], the IC50 at PLAP was 3.3 ± 0.2 µM. As for `CCc1nccn1CC(=O)c1ccc(O)c(O)c1` [Compound 13], the “Selectivity (GCAP/PLAP)” value on GCAP was “^* (2.1)”. For the same compound, the IC50 on PLAP is around 3 µM. Turning to `Cc1cc2ncn(CC(=O)c3ccc(O)c(O)c3)c2cc1C` [Compound 18], the “Selectivity (TNAP/PLAP)” value on TNAP is reported as above 17 fold. Take `Cc1nc(Br)cn1CC(=O)c1ccc(O)c(O)c1` [Compound 19]: the “increase in PLAP inhibitory potency” value at PLAP (19 relative to 16) is 3 fold. The compound also returned an IC50 against PLAP of 4.9 ± 0.6 µM. As for `Cc1cc(C(=O)NCc2ccc(O)c(O)c2)oc1C` [Compound 25], on PLAP, the IC50 is above 100 µM. Same read-out and setting: the same measure for `Cc1cc(C(=O)NCCc2ccc(O)c(O)c2)oc1C` [Compound 26]: above 100 µM; for `O=C(CSc1nnc(-c2ccccc2)[nH]1)c1ccc(O)c(O)c1` [Compound 28]: above 100 µM.

Compound `Cn1c(SCC(=O)c2ccccc2)nnc1-c1cccc(N)c1` [Compound 29] showed an IC50 against PLAP above 100 µM. Still for that read-out and setting: then `COc1ccc(-n2nnnc2SCC(=O)c2ccc(O)c(O)c2)cc1` [Compound 32], with 2 ± 0.1 µM.
